Reference: patent publication US20020002171A1, “Materials and methods for killing nematodes and nematode eggs” (priority 2000, published 2002)

System: Caenorhabditis elegans
Test: C. elegans L1 nematicidal dose response in 96-well plates, 5 day visual score (Example 2; same procedure for Example 7, Table 3)
Assay type: in vivo
Set-up: key to 5 Day Visual Score V1 / 5 Day Visual Score V2 / 5 Day Visual Score V3 / 5 Day Visual Score V4 / 5 Day Visual Score V6 / 5 Day Visual Score V5 / Initial HTS Run Visual Score / Follow-up HTS Run Visual Score: Dead: only stiff L1s (no movement); Dead (L4): worms are dead, but at a later larval stage; majority of worms are L1 (based on size) worms move when plate is tapped; majority of worms are L2 (based on size); majority of worms are L3 (based on size); majority of worms are L4 (based on size); AD: majority of worms are adult; #AD: 5 adult worms or less; B!: sterile (0-25 progeny); B: low broodsize (25-100 progeny); ˜B: moderate broodsize (100-250 progeny); <: reduced broodsize (250-500 progeny); OK: no effect (˜1000+ progeny)
Conditions: for 5 Day Visual Score V2 / 5 Day Visual Score V3 / 5 Day Visual Score V4 / 5 Day Visual Score V5 / 5 Day Visual Score V6 / 5 Day Visual Score V1: dose response; for 5 Day Visual Score V2: dilution V2, day 5; for 5 Day Visual Score V3: dilution V3, day 5; for 5 Day Visual Score V4: dilution V4, day 5; for 5 Day Visual Score V5: dilution V5, day 5; for 5 Day Visual Score V6: dilution V6, day 5; for 5 Day Visual Score V1: dilution V1, day 5
Summary of the method: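 L1 larvae, 20 per well in NGM with 1% E. coli HB101 and antibiotic/antimycotic, exposed to six 3-fold dilutions from 70 μM down to 0.3 μM (1.4% DMSO at top). Held at 20° C; viability scored visually under 100× dissecting microscope on day 5.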

| SMILES | Follow-up HTS Run % Run [%] | Follow-up HTS Run mOD [mOD] | Initial HTS Run % Run [%] | Initial HTS Run mOD [mOD] | 5 Day Visual Score V2 | 5 Day Visual Score V3 | 5 Day Visual Score V4 | 5 Day Visual Score V5 | 5 Day Visual Score V6 | 5 Day Visual Score V1 | Follow-up HTS Run Visual Score | Initial HTS Run Visual Score |
| --- | --- | --- | --- | --- | --- | --- | --- | --- | --- | --- | --- | --- |
| CCN(CC)C(=O)C1CCCN(c2nc(NCc3ccccc3)ns2)C1 (stereo not shown) [compound 265] | 111 | 178 | 108 | 119 | OK (no effect (˜1000+ progeny)) | OK (no effect (˜1000+ progeny)) | OK (no effect (˜1000+ progeny)) | OK (no effect (˜1000+ progeny)) | OK (no effect (˜1000+ progeny)) | – | – | – |
| FC(F)(F)c1cccc(N2CCN(c3nc(NCc4ccccc4)ns3)CC2)c1 [compound 266] | 124 | 200 | 110 | 121 | – | – | OK (no effect (˜1000+ progeny)) | OK (no effect (˜1000+ progeny)) | OK (no effect (˜1000+ progeny)) | Dead | – | – |
| CCOc1cc(CCNc2nsc(N3CCN(c4ccc(F)cc4)CC3)n2)ccc1OC [compound 267] | 99 | 160 | 94 | 103 | L1 | < (reduced broodsize (250-500 progeny)) | OK (no effect (˜1000+ progeny)) | OK (no effect (˜1000+ progeny)) | OK (no effect (˜1000+ progeny)) | Dead | Dead | Dead |
| Fc1ccc(N2CCN(c3nc(NCCc4ccc(Oc5ccccc5)cc4)ns3)CC2)cc1 [compound 268] | 96 | 154 | 128 | 141 | Dead | – | L4#AD/B | OK (no effect (˜1000+ progeny)) | B (low broodsize (25-100 progeny)) | Dead | Dead | Dead |
| Cc1cccc(C)c1N1CCN(c2nc(NCCc3ccc(Oc4ccccc4)cc3)ns2)CC1 [compound 269] | 132 | 212 | 166 | 183 | – | OK (no effect (˜1000+ progeny)) | OK (no effect (˜1000+ progeny)) | OK (no effect (˜1000+ progeny)) | OK (no effect (˜1000+ progeny)) | Dead | L4/AD/B | L4/1AD/B |
| CCCCCCCCCCCCCCCCCCN(C)c1nc(NCCc2ccc(Oc3ccccc3)cc2)ns1 [compound 270] | 113 | 182 | 149 | 164 | – | – | OK (no effect (˜1000+ progeny)) | OK (no effect (˜1000+ progeny)) | OK (no effect (˜1000+ progeny)) | Dead | – | – |
| COc1ccc(CNc2nsc(N3CCN(c4ccc(F)cc4)CC3)n2)cc1 [compound 271] | 109 | 175 | 101 | 111 | – | – | < (reduced broodsize (250-500 progeny)) | OK (no effect (˜1000+ progeny)) | < (reduced broodsize (250-500 progeny)) | Dead | – | L4/AD/B |
| C=CCN(CC=C)c1nc(NCC(c2ccccc2)c2ccccc2)ns1 [compound 272] | 110 | 177 | 108 | 119 | B (low broodsize (25-100 progeny)) | OK (no effect (˜1000+ progeny)) | OK (no effect (˜1000+ progeny)) | OK (no effect (˜1000+ progeny)) | OK (no effect (˜1000+ progeny)) | Dead | – | L3 |
| CCCCCCCCCCNc1nsc(N2CCN(c3ccc(F)cc3)CC2)n1 [compound 273] | 94 | 151 | 101 | 111 | Dead | B (low broodsize (25-100 progeny)) | ˜B (moderate broodsize (100-250 progeny)) | OK (no effect (˜1000+ progeny)) | OK (no effect (˜1000+ progeny)) | Dead | Dead | – |
| CCCCCCCCCCNc1nsc(N2CCN(c3ncccn3)CC2)n1 [compound 274] | 116 | 187 | 111 | 122 | Dead | – | B (low broodsize (25-100 progeny)) | OK (no effect (˜1000+ progeny)) | OK (no effect (˜1000+ progeny)) | Dead | Dead | Dead |
| CCCCCCCCCCNc1nsc(N2CCN(c3c(C)cccc3C)CC2)n1 [compound 275] | 105 | 169 | 95 | 105 | Dead | OK (no effect (˜1000+ progeny)) | OK (no effect (˜1000+ progeny)) | OK (no effect (˜1000+ progeny)) | OK (no effect (˜1000+ progeny)) | Dead | Dead | Dead |
| CCCCCCCCCCNc1nsc(N(CC)C2CCCCC2)n1 [compound 276] | 116 | 187 | 116 | 128 | Dead | – | OK (no effect (˜1000+ progeny)) | OK (no effect (˜1000+ progeny)) | OK (no effect (˜1000+ progeny)) | Dead | Dead | Dead |
| CCCCCCCCCCNc1nsc(N(CC(CC)CCCC)CC(CC)CCCC)n1 (stereo not shown) [compound 278] | 109 | 175 | 112 | 123 | Dead | ˜B (moderate broodsize (100-250 progeny)) | OK (no effect (˜1000+ progeny)) | OK (no effect (˜1000+ progeny)) | OK (no effect (˜1000+ progeny)) | Dead | Dead | Dead |
| CCCCCCCCCCNc1nsc(N(CCCC)Cc2ccccc2)n1 [compound 279] | 131 | 211 | 144 | 158 | Dead | – | OK (no effect (˜1000+ progeny)) | OK (no effect (˜1000+ progeny)) | OK (no effect (˜1000+ progeny)) | Dead | Dead | Dead |
| CCCCCCCCCCNc1nsc(N(CC)Cc2ccccc2)n1 [compound 280] | 122 | 196 | 144 | 158 | Dead | ˜B (moderate broodsize (100-250 progeny)) | OK (no effect (˜1000+ progeny)) | OK (no effect (˜1000+ progeny)) | OK (no effect (˜1000+ progeny)) | Dead | Dead | Dead |
| CCCCCCCCCCNc1nsc(N(CC(C)C)CC(C)C)n1 [compound 281] | 128 | 206 | 141 | 155 | Dead | – | OK (no effect (˜1000+ progeny)) | OK (no effect (˜1000+ progeny)) | OK (no effect (˜1000+ progeny)) | Dead | Dead | Dead |
| C=CCN(CC=C)c1nc(NCCCCCCCCCC)ns1 [compound 282] | 122 | 197 | 135 | 148 | Dead | – | OK (no effect (˜1000+ progeny)) | OK (no effect (˜1000+ progeny)) | OK (no effect (˜1000+ progeny)) | Dead | Dead | Dead |
